# Data: paper PMC11272598, “RG7774 (Vicasinabin), an orally bioavailable cannabinoid receptor 2 (CB2R) agonist, decreases retinal vascular permeability, leukocyte adhesion, and ocular inflammation in animal models” (Frontiers in Pharmacology, 2024)
# Assays:
# [1] = tested on: STZ-induced diabetes retinal vascular permeability; experiment: Rats with STZ-induced type 1 diabetes (fluorophotometry); format: in vivo, Long Evans rats; details: STZ diabetic rats, 10 mg/kg daily oral gavage, 6 weeks after STZ, normalized to plasma
# Description: Twenty-six male Long Evans rats (outbred) (Charles River Laboratories, Sulzfeld, Germany) aged 7 weeks and weighing 250–270 g at the beginning of the study were housed in individually ventilated cages with a maximum density of n = 2 rats per cage with the same sex and monitored daily. Bedding for diabetic animals was changed daily. The room was kept at 20°C–24°C with 50%–60% humidity and a 12/12 h light-dark cycle. Rats received a standard diet and water ad libidum, in addition to soaked food or soft diet. For animal welfare and for dosing purposes, animals were weighed every other day. Rats were sacrificed if weight loss was greater than 20% of the original weight, or more than 20% of body gain within 1 week.
# Animals were fasted overnight and injected the following morning with IP 60 mg/kg (60 mg/mL at 1 mL/kg) STZ as reported previously ([Kim et al., 2007]; [Furman, 2015]) in 0.05 M sodium citrate buffer (pH 4.5). […]
# To quantify fluorotron measurements, raw data were generated, exported as .txt files, and plotted using Microsoft Excel. The average AUC was calculated for 5 steps in the region of the scans corresponding to the vitreous peak. […] All data are expressed as mean ± SEM ng/mL ratios of vitreous:plasma fluorescein. Fluorophotometry data were analyzed using 2-way ANOVA followed by Newman–Keuls multiple comparisons test. […]
# [2] = tested on: retinal microglia migration; experiment: Laser-induced CNV in rats, microglia volume on laser lesions; format: in vivo, Brown Norway rats
# Description: Right eyes were transferred to a petri dish containing 10% neutral-buffered formalin (NBF) and fixed for 5 min at RT. Eyes were prepared in PBS^−/– by removing the anterior segments and carefully separating the retinas from the posterior segments (retinal pigment epithelium/choroid and sclera). Dissected retinas were cut into petals, transferred to 2 × 24 well plates containing fresh 10% NBF solution, and fixed for 2 h at RT. […]
# Microglia migration towards laser-injured retinal regions was quantified from 3D RGB-images (CZI-files) of the fluorescently labeled retinal samples, a workflow and image analytics tool was applied that allowed a semi-automated volumetric quantitation of Iba1-positive pixel per image frame integrated over the Z-dimension. […] Subsequently, TIFF images were analyzed using IDL (Interactive Data Language, Version 6.4) in combination with Excel 2010 to compute RGB-channel-dependent threshold images (pdf-files) with a histogram between 1–255 A.U. pixel intensity. […] The sum of pixels displaying the determined threshold intensity or higher was calculated and finally integrated over the Z-dimension of the 3D image.
smiles,measurement,setting,value
"Cn1nnnc1Cn1nnc2c(N3CC[C@H](O)C3)nc(C(C)(C)C)nc21 [RG7774, (S)-1-(5-tert-butyl-3-[(1-methyl-1H-tetrazol-5-yl)methyl]-3H-[1,2,3]triazolo[4,5-d]pyrimidin-7-yl)pyrrolidin-3-ol]",vitreous fluorescein,[1],25.6 ng/mL
same,reduction of microglia volumes in lasered versus non-lasered regions,[2]; 3 mg/kg oral gavage,25%
same,reduction of microglia volumes in lasered versus non-lasered regions,[2]; 10 mg/kg oral gavage,41%
